The values below come from US20250171437A1 (Agios Pharmaceuticals,Inc., priority 2022, published 2025).

In the assay the target is T1, human PAH with the R408W mutation (A375 R408W cells) (Homo sapiens, UniProt P00439, R408W).
T1 construct: expressed in transfected cells
T1 sequence (P00439 1-452 R408W): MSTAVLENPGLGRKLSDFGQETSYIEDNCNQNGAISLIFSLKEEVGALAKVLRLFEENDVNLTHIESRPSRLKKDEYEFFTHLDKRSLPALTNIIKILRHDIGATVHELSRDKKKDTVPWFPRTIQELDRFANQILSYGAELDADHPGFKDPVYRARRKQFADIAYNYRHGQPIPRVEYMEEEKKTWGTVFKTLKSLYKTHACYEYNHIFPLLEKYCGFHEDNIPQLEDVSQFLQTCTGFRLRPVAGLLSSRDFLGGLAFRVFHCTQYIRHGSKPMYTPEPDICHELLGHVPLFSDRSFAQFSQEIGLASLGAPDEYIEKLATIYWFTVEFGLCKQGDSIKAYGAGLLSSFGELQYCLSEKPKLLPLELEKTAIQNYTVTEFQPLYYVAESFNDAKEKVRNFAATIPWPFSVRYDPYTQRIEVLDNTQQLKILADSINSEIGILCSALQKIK
The assay is described as follows: Cell Based Phenylalanine Flux Assay. To be noted: 24 hrs with compound, then 20 μM sepiapterin and 800 μM 13C9,15N-Phenylalanine for 4 hours, 13C-Tyrosine by LC-MS, average where tested multiple times. The method, boiled down:
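AC50 is derived from LC-MS of 13C-tyrosine in the media after a 4 h pulse of 800 μM 13C9,15N-phenylalanine plus 20 μM sepiapterin. The A375 R408W PAH cells had received duplicate 10-point, 2-fold compound dilutions (0.5% DMSO) for 24 h beforehand.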

Setting [1] is: A375 cells expressing R408W PAH.

Regarding `Cc1nc(-c2ccccn2)oc1C(=O)N1CCc2[nH]cnc2[C@@H]1c1nc2cc(F)ccc2o1` [Example 32, (R)-(4-(5-fluorobenzo[d]oxazol-2-yl)-6,7-dihydro-1H-imidazo[4,5-c]pyridin-5(4H)-yl)(4-methyl-2-(pyridin-2-yl)oxazol-5-yl)methanone], the AC50 (as a rule, the midpoint of the concentration-response curve, whichever way the signal moves) (A375 R408W cells) lay in the range of 1000 to 5000 nM.
For `O=C(c1nnc(-c2ccc(C(F)(F)F)cn2)o1)N1CCc2[nH]cnc2C1c1nc2cc(F)ccc2o1` (stereo not shown), the AC50 under setting [1] is 1000 to 5000 nM.
`Cc1ccc2oc([C@H]3c4nc[nH]c4CCN3C(=O)c3oc(C(C)(C)O)nc3C(F)F)nc2c1` [Example 312, (R)-(4-(difluoromethyl)-2-(2-hydroxypropan-2-yl)oxazol-5-yl)(4-(5-methylbenzo[d]oxazol-2-yl)-6,7-dihydro-1H-imidazo[4,5-c]pyridin-5(4H)-yl)methanone]: the AC50 (A375 R408W cells) lay within 500 to 1000 nM.
On the same count and under the same terms, the same measure for `O=C(c1ocnc1C(F)F)N1CCc2[nH]cnc2[C@H]1c1nc2cc(Cl)cc(F)c2o1` [Example 608, (S)-(4-(5-chloro-7-fluorobenzo[d]oxazol-2-yl)-6,7-dihydro-1H-imidazo[4,5-c]pyridin-5(4H)-yl)(4-(difluoromethyl)oxazol-5-yl)methanone]: at most 500 nM; for `CC(C)(O)c1nc(C2CC2)c(C(=O)N2CCc3[nH]cnc3[C@@H]2c2nc3cc(F)ccc3o2)o1` [Example 558, (R)-(4-cyclopropyl-2-(2-hydroxypropan-2-yl)oxazol-5-yl)(4-(5-fluorobenzo[d]oxazol-2-yl)-6,7-dihydro-1H-imidazo[4,5-c]pyridin-5(4H)-yl)methanone]: 1000 to 5000 nM.
As to `O=C(c1nnc(-c2cnn(C(F)F)c2)o1)N1CCc2[nH]cnc2C1c1nc2cc(F)ccc2o1` (stereo not shown), under setting [1], the AC50 lay within 1000 to 5000 nM.
Take `O=C(c1ocnc1C(F)F)N1CCc2[nH]cnc2[C@H]1c1nc2c(F)c(F)ccc2o1` [Example 350, (S)-(4-(4,5-difluorobenzo[d]oxazol-2-yl)-6,7-dihydro-1H-imidazo[4,5-c]pyridin-5(4H)-yl)(4-(difluoromethyl)oxazol-5-yl)methanone]: the AC50 (A375 R408W cells) was at most 500 nM.
Same read-out and setting: under `COCc1ccc2c(C(=O)N3CCc4[nH]cnc4[C@H]3c3nc4c(F)cccc4o3)cnn2c1` [Example 275, (S)-(4-(4-fluorobenzo[d]oxazol-2-yl)-6,7-dihydro-1H-imidazo[4,5-c]pyridin-5(4H)-yl)(6-(methoxymethyl)pyrazolo[1,5-a]pyridin-3-yl)methanone] stands 500 to 1000 nM.
Same read-out and setting: the same measure for `Cn1cncc1-c1nc(C(F)F)c(C(=O)N2CCc3[nH]cnc3[C@@H]2c2nc3cccc(F)c3o2)o1` [Example 691, (R)-(4-(difluoromethyl)-2-(1-methyl-1H-imidazol-5-yl)oxazol-5-yl)(4-(7-fluorobenzo[d]oxazol-2-yl)-6,7-dihydro-1H-imidazo[4,5-c]pyridin-5(4H)-yl)methanone]: 500 to 1000 nM.
Still for that read-out and setting: the same measure for `O=C(c1cnn2cc(N3CCOCC3)ccc12)N1CCc2[nH]cnc2[C@@H]1c1nc2cccc(F)c2o1` [Example 366, (R)-(4-(7-fluorobenzo[d]oxazol-2-yl)-6,7-dihydro-1H-imidazo[4,5-c]pyridin-5(4H)-yl)(6-morpholinopyrazolo[1,5-a]pyridin-3-yl)methanone]: 1000 to 5000 nM; for `Cc1nc(-c2ccccn2)oc1C(=O)N1CCc2[nH]cnc2[C@@H]1c1nc2cccc(F)c2o1` [Example 593, (R)-(4-(7-fluorobenzo[d]oxazol-2-yl)-6,7-dihydro-1H-imidazo[4,5-c]pyridin-5(4H)-yl)(4-methyl-2-(pyridin-2-yl)oxazol-5-yl)methanone]: 1000 to 5000 nM.
As for `O=C(c1ocnc1CC(F)F)N1CCc2[nH]cnc2[C@@H]1c1nc2cccc(F)c2o1` [Example 864, (R)-(4-(2,2-difluoroethyl)oxazol-5-yl)(4-(7-fluorobenzo[d]oxazol-2-yl)-6,7-dihydro-1H-imidazo[4,5-c]pyridin-5(4H)-yl)methanone], where the note is “A375 R408W cells”, the AC50 is at most 500 nM.
As to `Cn1cc(-c2nc(C(F)F)c(C(=O)N3CCc4[nH]cnc4[C@H]3c3nc4cccc(F)c4o3)o2)cn1` [Example 636, (S)-(4-(difluoromethyl)-2-(1-methyl-1H-pyrazol-4-yl)oxazol-5-yl)(4-(7-fluorobenzo[d]oxazol-2-yl)-6,7-dihydro-1H-imidazo[4,5-c]pyridin-5(4H)-yl)methanone], where the note is “A375 R408W cells”, the AC50 is at most 500 nM.
The same measure, in the same setting: under `O=C(c1cnn2cc(-c3ccccn3)ccc12)N1CCc2[nH]cnc2[C@H]1c1nc2c(F)cccc2o1` [Example 543, (S)-(4-(4-fluorobenzo[d]oxazol-2-yl)-6,7-dihydro-1H-imidazo[4,5-c]pyridin-5(4H)-yl)(6-(pyridin-2-yl)pyrazolo[1,5-a]pyridin-3-yl)methanone] stands at most 500 nM.
For `Cc1cccc2nc(C3c4nc[nH]c4CCN3C(=O)c3cnc(C(C)(C)O)o3)oc12` (stereo not shown), the AC50 under setting [1] was 1000 to 5000 nM.
For `CC(C)(O)c1nc(C(F)F)c(C(=O)N2CCc3[nH]cnc3[C@H]2c2nc3c(F)cccc3o2)o1` [Example 199, (S)-(4-(difluoromethyl)-2-(2-hydroxypropan-2-yl)oxazol-5-yl)(4-(4-fluorobenzo[d]oxazol-2-yl)-6,7-dihydro-1H-imidazo[4,5-c]pyridin-5(4H)-yl)methanone], the AC50 (A375 R408W cells) was at most 500 nM.
On the same count and under the same terms, under `Cc1cccc2oc([C@@H]3c4nc[nH]c4CCN3C(=O)c3cnn4cc(N5CCC(O)CC5)ccc34)nc12` [Example 701, (S)-(6-(4-hydroxypiperidin-1-yl)pyrazolo[1,5-a]pyridin-3-yl)(4-(4-methylbenzo[d]oxazol-2-yl)-6,7-dihydro-1H-imidazo[4,5-c]pyridin-5(4H)-yl)methanone] stands at most 500 nM.
For `Cn1cc(-c2ncc(C(=O)N3CCc4[nH]cnc4C3c3nc4ccc(Br)cc4o3)o2)cn1` (stereo not shown), the AC50 under setting [1] lay in the range of 1000 to 5000 nM.
For `CN(C)CCc1ccc2c(C(=O)N3CCc4[nH]cnc4[C@@H]3c3nc4cc(F)ccc4o3)cnn2c1` [Example 48, (R)-(6-(2-(dimethylamino)ethyl)pyrazolo[1,5-a]pyridin-3-yl)(4-(5-fluorobenzo[d]oxazol-2-yl)-6,7-dihydro-1H-imidazo[4,5-c]pyridin-5(4H)-yl)methanone], the AC50 (A375 R408W cells) is at least 5000 nM.
Consider `O=C(c1ccnn1-c1ccccn1)N1CCc2[nH]cnc2C1c1nc2cc(F)ccc2o1` (stereo not shown), for which the AC50 under setting [1] lay in the range of 1000 to 5000 nM.
On to `CC(C)n1ncnc1C(=O)N1CCc2[nH]cnc2[C@@H]1c1nc2ccccc2o1` [Example 706, (R)-(4-(benzo[d]oxazol-2-yl)-6,7-dihydro-1H-imidazo[4,5-c]pyridin-5(4H)-yl)(1-isopropyl-1H-1,2,4-triazol-5-yl)methanone], for which the AC50 (A375 R408W cells) was in the range of 500 to 1000 nM.
The same measure, in the same setting: under `COc1cccc2nc([C@H]3c4nc[nH]c4CCN3C(=O)c3ocnc3C(F)F)oc12` [Example 458, (R)-(4-(difluoromethyl)oxazol-5-yl)(4-(7-methoxybenzo[d]oxazol-2-yl)-6,7-dihydro-1H-imidazo[4,5-c]pyridin-5(4H)-yl)methanone] stands at most 500 nM.
Same read-out and setting: the same measure for `CC(C)(O)c1nc(C(F)F)c(C(=O)N2CCc3[nH]cnc3[C@@H]2c2nc3cccc(F)c3o2)o1` [Example 194, (R)-(4-(difluoromethyl)-2-(2-hydroxypropan-2-yl)oxazol-5-yl)(4-(7-fluorobenzo[d]oxazol-2-yl)-6,7-dihydro-1H-imidazo[4,5-c]pyridin-5(4H)-yl)methanone]: at most 500 nM.
`Cn1ncc(C(=O)N2CCc3[nH]cnc3C2c2nc3cc(F)ccc3o2)c1C(F)F` (stereo not shown): the AC50 under setting [1] lay within 1000 to 5000 nM.
`Cc1ncoc1C(=O)N1CCc2[nH]cnc2[C@@H]1c1nc2c(F)cccc2o1` [Example 600, (R)-(4-(4-fluorobenzo[d]oxazol-2-yl)-6,7-dihydro-1H-imidazo[4,5-c]pyridin-5(4H)-yl)(4-methyloxazol-5-yl)methanone]: for the setting “A375 R408W cells”, the AC50 is 1000 to 5000 nM.
In the case of `Nc1cc2c(C(=O)N3CCc4[nH]cnc4C3c3nc4cc(F)ccc4o3)cnn2cc1F` (stereo not shown), the AC50 under setting [1] was 1000 to 5000 nM.
With `O=C(c1cnco1)N1CCc2[nH]cnc2[C@H]1c1nc2c(F)ccc(F)c2o1` [Example 483, (S)-(4-(4,7-difluorobenzo[d]oxazol-2-yl)-6,7-dihydro-1H-imidazo[4,5-c]pyridin-5(4H)-yl)(oxazol-5-yl)methanone], the AC50 (A375 R408W cells) lay within 500 to 1000 nM.
With `Cn1cc(-c2nc(C(F)F)c(C(=O)N3CCc4[nH]cnc4[C@H]3c3nc4ccccc4o3)o2)cn1` [Example 760, (S)-(4-(benzo[d]oxazol-2-yl)-6,7-dihydro-1H-imidazo[4,5-c]pyridin-5(4H)-yl)(4-(difluoromethyl)-2-(1-methyl-1H-pyrazol-4-yl)oxazol-5-yl)methanone], where the note is “A375 R408W cells”, the AC50 was at most 500 nM.
Regarding `O=C(C1CN(CC(F)(F)F)C1)N1CCc2[nH]cnc2C1c1nc2cc(F)ccc2o1` (stereo not shown), the AC50 under setting [1] lay in the range of 1000 to 5000 nM.
Regarding `Cn1cncc1-c1nc(C(F)F)c(C(=O)N2CCc3[nH]cnc3[C@H]2c2nc3ccccc3o2)o1` [Example 764, (S)-(4-(benzo[d]oxazol-2-yl)-6,7-dihydro-1H-imidazo[4,5-c]pyridin-5(4H)-yl)(4-(difluoromethyl)-2-(1-methyl-1H-imidazol-5-yl)oxazol-5-yl)methanone], the AC50 (A375 R408W cells) was at most 500 nM.
Take `Cn1cnnc1C(=O)N1CCc2[nH]cnc2C1c1nc2c(F)cccc2o1` (stereo not shown): the AC50 under setting [1] was in the range of 1000 to 5000 nM.
